What was measured:
[1] = system: Sweetpotato Whitefly-Crawler (Bemisia tabaci); experiment: Insecticidal test for Sweetpotato Whitefly-Crawler (WF) (BEMITA) in foliar spray assay on cotton plants; assay type: in vivo; conditions: 216 h, 200 ppm foliar spray, graded after 9 days, Abbott corrected % control, read-out: % Control (or Mortality) rating, WF
Experimental: Cotton plants (Gossypium hirsutum) grown in 3-inch pots, with 1 small (4-5 cm) true leaves, were used as test substrate. The plants were infested with 200-400 whitefly eggs 4-5 days prior to chemical application. Four pots with individual plants were used for each treatment. Test compounds (2 mg) were dissolved in 1 mL of acetone solvent, forming stock solutions of 2000 ppm test compound. The stock solutions were diluted 10× with 0.025% Tween 20 in H2O (diluents) to obtain the solution at 200 ppm test compound. A hand-held aspirator-type sprayer was used for spraying a solution to both sides of cotton leaves until runoff. Reference plants (solvent check) were sprayed with the diluent only containing 10% by volume of acetone solvent. Treated plants were held in a holding room for 9 days at approximately 25° C. and ambient relative humidity (RH) prior to grading. Evaluation was conducted by counting the number of live 3-4 nymph stage per plant under a microscope. Percent control was measured by using Abbott's correction formula (W. S. Abbott, “A Method of Computing the Effectiveness of an Insecticide,” J. Econ. Entomol. 18 (1925), pp. 265-267) as follows. Corrected % Control=100*(X−Y)/X
X=No. of live nymphs on solvent check plants and
Y=No. of live nymphs on treated plants.
(§1) Biological Data for Green Peach Aphid (GPA) (MYZUPE) and Sweetpotato Whitefly-crawler (WF) (BEMITA)” (See Table Section).

[2] = system: Green Peach Aphid (Myzus persicae); experiment: Bioassay for Green Peach Aphid (GPA) (MYZUPE), foliar spray on cabbage seedlings; assay type: in vivo; conditions: 72 h, 200 ppm foliar spray, graded after three days, Abbott corrected % control, read-out: % Control (or Mortality) rating, GPA
Experimental: Cabbage seedlings grown in 3-inch pots, with 2-3 small (3-5 cm) true leaves, were used as test substrate. The seedlings were infested with 20-50 GPA (wingless adult and nymph stages) one day prior to chemical application. Four pots with individual seedlings were used for each treatment. Test compounds (2 mg) were dissolved in 2 mL of acetone/methanol (1:1) solvent, forming stock solutions of 1000 ppm test compound. The stock solutions were diluted 5× with 0.025% Tween 20 in H2O to obtain the solution at 200 ppm test compound. A hand-held aspirator-type sprayer was used for spraying a solution to both sides of […] leaves until runoff. Reference plants (solvent check) were sprayed with the diluent only containing 20% by volume of acetone/methanol (1:1) solvent. Treated plants were held in a holding room for three days at approximately 25° C. and ambient relative humidity (RH) prior to grading. Evaluation was conducted by counting the number of live aphids per plant under a microscope. Percent control was measured by using Abbott's correction formula (W. S. Abbott, “A Method of Computing the Effectiveness of an Insecticide,” J. Econ. Entomol. 18 (1925), pp. 265-267) as follows. Corrected % Control=100*(X−Y)/X
X=No. of live aphids on solvent check plants and
Y=No. of live aphids on treated plants
as §1

SMILES | mortality at 200 ppm [1] [%] | mortality at 200 ppm [2] [%]
C#CCNc1cn(-c2ccc[n+]([O-])c2)nc1Cl [CA1, 3-(3-Chloro-4-(prop-2-yn-1-ylamino)-1H-pyrazol-1-yl)pyridine 1-oxide] | 0 to 80 | 0 to 80
CCNc1cn(-c2ccc[n+]([O-])c2)nc1C [CA2, 3-(4-(Ethylamino)-3-methyl-1H-pyrazol-1-yl)pyridine 1-oxide] | 80 to 100 | 0 to 80
CNc1cn(-c2ccc[n+]([O-])c2)nc1Cl [CA3, 3-(3-Chloro-4-(methylamino)-1H-pyrazol-1-yl)pyridine 1-oxide] | 0 to 80 | 80 to 100
CCNc1cn(-c2cc(F)c[n+]([O-])c2)nc1Cl [CA4, 3-(3-Chloro-4-(ethylamino)-1H-pyrazol-1-yl)-5-fluoropyridine 1-oxide] | 0 to 80 | 0 to 80
CCNc1cn(-c2ccc[n+]([O-])c2)nc1Cl [Compound C1, 3-(3-chloro-4-(ethylamino)-1H-pyrazol-1-yl)pyridine 1-oxide] | 0 to 80 | 0 to 80
CCN(C(=O)CC[S+]([O-])CCC(F)(F)F)c1cn(-c2ccc[n+]([O-])c2)nc1Cl (stereo not shown) [Compound F1, 3-(3-chloro-4-(N-ethyl-3-((3,3,3-trifluoropropyl)sulfinyl)propanamido)-1H-pyrazol-1-yl)pyridine 1-oxide] | 80 to 100 | 80 to 100
CCN(C(=O)CCSC)c1cn(-c2ccc[n+]([O-])c2)nc1Cl [Compound F2, 3-(3-Chloro-4-(N-ethyl-3-(methylthio)propanamido)-1H-pyrazol-1-yl) pyridine 1-oxide] | 80 to 100 | 80 to 100
CCN(C(=O)C(C)CS(C)(=O)=O)c1cn(-c2ccc[n+]([O-])c2)nc1C (stereo not shown) [Compound F4, 3-(4-(N-ethyl-2-methyl-3-(methylsulfonyl)propanamido)-3-methyl-1H-pyrazol-1-yl)pyridine-1-oxide] | 80 to 100 | 80 to 100
CCN(C(=O)CCSCCC(F)(F)F)c1cn(-c2ccc[n+]([O-])c2)nc1Cl [Compound F5, 3-(3-chloro-4-(N-ethyl-3-((3,3,3-trifluoropropyl)thio)propanamido)-1H-pyrazol-1-yl)pyridine 1-oxide] | 80 to 100 | 80 to 100
CCN(C(=O)C(C)C[S+](C)[O-])c1cn(-c2ccc[n+]([O-])c2)nc1Cl (stereo not shown) [Compound F6] | 80 to 100 | 80 to 100
CCN(C(=O)C(C)[S+]([O-])CC(F)(F)F)c1cn(-c2ccc[n+]([O-])c2)nc1Cl (stereo not shown) [Compound F7, 3-(3-Chloro-4-(N-ethyl-2-((2,2,2-trifluoroethyl)sulfinyl)propanamido)-1H-pyrazol-1-yl)pyridine 1-oxide] | 0 to 80 | 80 to 100
CCN(C(=O)C(C)S(=O)(=O)CC(F)(F)F)c1cn(-c2ccc[n+]([O-])c2)nc1Cl (stereo not shown) [Compound F8, 3-(3-Chloro-4-(N-ethyl-2-((2,2,2-trifluoroethyl)sulfonyl)propanamido)-1H-pyrazol-1-yl)pyridine 1-oxide] | 80 to 100 | 80 to 100
CCN(C(=O)CC[S+](C)[O-])c1cn(-c2ccc[n+]([O-])c2)nc1Cl (stereo not shown) [Compound F9, 3-(3-Chloro-4-(N-ethyl-3-(methylsulfinyl)propanamido)-1H-pyrazol-1-yl) pyridine 1-oxide] | 80 to 100 | 80 to 100
CCN(C(=O)C(C)S(C)(=O)=O)c1cn(-c2ccc[n+]([O-])c2)nc1Cl (stereo not shown) [FA13, 3-(3-chloro-4-(N-ethyl-2-(methylsulfonyl)propanamido)-1H-pyrazol-1-yl)pyridine 1-oxide] | – | 80 to 100
CC(C(=O)N(CC1CC1)c1cn(-c2ccc[n+]([O-])c2)nc1Cl)S(C)(=O)=O (stereo not shown) [FA14, 3-(3-chloro-4-(N-(cyclopropylmethyl)-2-(methylsulfonyl)propanamido)-1H-pyrazol-1-yl)pyridine 1-oxide] | – | 80 to 100
